The target in the experiment is T1, SIRT1 (Homo sapiens, UniProt Q96EB6).
T1 sequence (Q96EB6 1-747): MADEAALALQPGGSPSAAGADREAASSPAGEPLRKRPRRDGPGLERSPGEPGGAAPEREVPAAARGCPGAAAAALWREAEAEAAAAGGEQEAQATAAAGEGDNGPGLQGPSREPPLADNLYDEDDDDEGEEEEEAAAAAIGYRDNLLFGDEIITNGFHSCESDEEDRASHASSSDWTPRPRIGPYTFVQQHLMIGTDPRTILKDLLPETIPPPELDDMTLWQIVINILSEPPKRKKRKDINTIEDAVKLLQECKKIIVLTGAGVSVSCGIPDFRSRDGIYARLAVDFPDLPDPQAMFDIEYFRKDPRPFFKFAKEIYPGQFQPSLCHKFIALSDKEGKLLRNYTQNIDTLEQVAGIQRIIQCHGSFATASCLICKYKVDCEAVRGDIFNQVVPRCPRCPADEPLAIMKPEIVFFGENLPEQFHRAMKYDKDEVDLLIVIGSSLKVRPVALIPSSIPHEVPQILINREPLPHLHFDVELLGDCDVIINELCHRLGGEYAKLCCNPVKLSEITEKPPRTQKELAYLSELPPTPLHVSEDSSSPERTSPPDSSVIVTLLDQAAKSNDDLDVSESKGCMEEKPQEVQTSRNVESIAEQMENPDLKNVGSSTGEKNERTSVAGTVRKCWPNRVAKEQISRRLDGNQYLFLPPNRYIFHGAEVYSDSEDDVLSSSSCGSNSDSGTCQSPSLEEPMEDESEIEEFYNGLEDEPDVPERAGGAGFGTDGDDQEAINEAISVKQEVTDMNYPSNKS
In words: Mass spectrometry based SIRT1 deacetylation (activation) assay. The format is biochemical. The note with it: 0.5 μM peptide substrate, 120 μM βNAD+, 10 nM SIRT1, 25 min at 25° C.; for Emax: 25 min, read-out: % Fold Act. (percent maximum fold activation).

With `CN(C)CCNc1cc(C(=O)Nc2ccccc2-c2cccnc2)nc(-c2ccccc2)n1` [Compound 11], the EC1.5 result is “B (EC1.5>1 and ≦10 uM)”; the Emax was in the range of 150 to 300%.

As for `CC(=O)c1ccccc1NC(=O)c1cc(N2CCNCC2)nc(-c2ccccc2)n1` [Compound 138], the EC1.5 result was “B (EC1.5>1 and ≦10 uM)”; the Emax was ≥ 300%.

`CCN(CCN(C)C)c1cc(C(=O)Nc2ccccc2C(=O)NC2CC2)nc(-c2ccccc2)n1` [Compound 168, N-(2-(cyclopropylcarbamoyl)phenyl)-6-((2-(dimethylamino)ethyl)(ethyl)amino)-2-phenylpyrimidine-4-carboxamide]: the EC1.5 entry is reported as “A (EC1.5≦1 uM)” and the Emax was 150 to 300%.

Take `CCN(CCN(C)C)c1cc(C(=O)Nc2ccccc2-c2nnc(C3CCOC3)s2)nc(-c2ccccc2)n1` (stereo not drawn) [Compound 97, 6-((2-(dimethylamino)ethyl)(ethyl)amino)-2-phenyl-N-(2-(5-(tetrahydrofuran-3-yl)-1,3,4-thiadiazol-2-yl)phenyl)pyrimidine-4-carboxamide]: the EC1.5 result is given as “A (EC1.5≦1 uM)” and the Emax is ≥ 300%.

As for `CCC(=O)c1ccccc1NC(=O)c1cc(NCCN(C)C)nc(-c2ccccc2)n1` [Compound 126], the EC1.5 entry is “B (EC1.5>1 and ≦10 uM)”; the Emax fell in the range of 150 to 300%.

Regarding `CN(C)CCNc1cc(C(=O)Nc2ccccc2C(=O)Nc2ccccc2)nc(-c2ccccc2)n1` [Compound 128, 6-(2-(dimethylamino)ethylamino)-2-phenyl-N-(2-(phenylcarbamoyl)phenyl)pyrimidine-4-carboxamide], the EC1.5 result was “B (EC1.5>1 and ≦10 uM)”; the Emax lay within 150 to 300%.

On to `CC(C)(C)c1cnc(-c2ccccc2NC(=O)c2cc(OC[C@@H](O)CO)cc(-c3ccccc3)n2)o1` [Compound 76], for which the EC1.5 entry was “B (EC1.5>1 and ≦10 uM)”; the Emax is ≥ 300%.

Regarding `CCN(CCN(C)C)c1cc(C(=O)Nc2ccccc2C(=O)N[C@@H]2CCCC[C@@H]2O)nc(-c2ccccc2)n1` [Compound 170, 6-((2-(dimethylamino)ethyl)(ethyl)amino)-N-(2-((1R,2S)-2-hydroxycyclohexylcarbamoyl)phenyl)-2-phenylpyrimidine-4-carboxamide], the EC1.5 entry is listed as “A (EC1.5≦1 uM)” and the Emax was ≥ 300%.

For `CN(C)CCNc1cc(C(=O)Nc2ccccc2-c2nnc(C3CCC3)s2)nc(-c2ccccc2)n1` [Compound 48], the EC1.5 entry was “B (EC1.5>1 and ≦10 uM)”; the Emax is 150 to 300%.

Turning to `C/C(=N\O)c1ccccc1NC(=O)c1cc(NCCN(C)C)nc(-c2ccccc2)n1` [Compound 132], the EC1.5 entry was “B (EC1.5>1 and ≦10 uM)”; the Emax was 150 to 300%.

Regarding `CN1CCN(c2cc(C(=O)Nc3ccccc3-c3nnc(C(=O)N4CCOCC4)s3)nc(-c3ccccc3)n2)CC1=O` [Compound 88], the EC1.5 entry is recorded as “A (EC1.5≦1 uM)” and the Emax was ≥ 300%.

Turning to `CN(C)CCNc1cc(C(=O)Nc2ccccc2-c2nnc(-c3cccnc3)s2)nc(-c2ccccc2)n1` [Compound 77], the EC1.5 entry is reported as “A (EC1.5≦1 uM)” and the Emax is ≥ 300%.

For `CN(C)CCNc1cc(C(=O)Nc2ccccc2C(=O)Nc2cccc(Cl)c2)nc(-c2ccccc2)n1` [Compound 145, N-(2-(3-chlorophenylcarbamoyl)phenyl)-6-(2-(dimethylamino)ethylamino)-2-phenylpyrimidine-4-carboxamide], the EC1.5 result was “A (EC1.5≦1 uM)” and the Emax is ≥ 300%.

`CN(C)CCNc1cc(C(=O)Nc2ccccc2-c2ccncc2)nc(-c2ccccc2)n1` [Compound 10]: the EC1.5 result is “B (EC1.5>1 and ≦10 uM)”; the Emax was in the range of 150 to 300%.

Take `CN(C)CCNc1cc(C(=O)Nc2ccccc2C(=O)NCC[S+](C)[O-])nc(-c2ccccc2)n1` (stereo not drawn) [Compound 152, 6-(2-(dimethylamino)ethylamino)-N-(2-(2-(methylsulfinyl)ethylcarbamoyl)phenyl)-2-phenylpyrimidine-4-carboxamide]: the EC1.5 entry is “B (EC1.5>1 and ≦10 uM)”; the Emax was 150 to 300%.

In the case of `CN(C)CCNc1cc(C(=O)Nc2ccccc2C(N)=O)nc(-c2ccccc2)n1` [Compound 3], the EC1.5 entry was “B (EC1.5>1 and ≦10 uM)”; the Emax is ≥ 300%.

Consider `CN(C)CCNC(=O)c1ccccc1NC(=O)c1cc(NCCN(C)C)nc(-c2ccccc2)n1` [Compound 121, 6-(2-(dimethylamino)ethylamino)-N-(2-(2-(dimethylamino)ethylcarbamoyl)phenyl)-2-phenylpyrimidine-4-carboxamide], for which the EC1.5 result was “B (EC1.5>1 and ≦10 uM)”; the Emax is 150 to 300%.

As for `CN(C)CCNc1cc(C(=O)Nc2ccccc2-c2nnc(C(N)=O)s2)nc(-c2ccccc2)n1` [Compound 66], the EC1.5 entry is “A (EC1.5≦1 uM)” and the Emax is 150 to 300%.

For `CCc1nnc(-c2ccccc2NC(=O)c2cc(N(C)CCNC)nc(-c3ccccc3)n2)s1` [Compound 52], the EC1.5 result was “A (EC1.5≦1 uM)” and the Emax fell in the range of 150 to 300%.

In the case of `CN(C)CCNc1cc(C(=O)Nc2ccccc2-c2ccco2)nc(-c2ccccc2)n1` [Compound 16], the EC1.5 result was “B (EC1.5>1 and ≦10 uM)”; the Emax is ≥ 300%.

Turning to `Cc1cnc(-c2ccccc2NC(=O)c2cc(NCCN(C)C)nc(-c3ccccc3)n2)s1` [Compound 22], the EC1.5 entry is “B (EC1.5>1 and ≦10 uM)”; the Emax is ≥ 300%.

For the compound `CN(C)CCNc1cc(C(=O)Nc2ccccc2C(=O)c2ccccc2)nc(-c2ccccc2)n1` [Compound 131], the EC1.5 result was “B (EC1.5>1 and ≦10 uM)”; the Emax was 150 to 300%.

As for `CCN1CCN(c2cc(C(=O)Nc3ccccc3-c3nnc(C4CCOCC4)s3)nc(-c3ccccc3)n2)CC1=O` [Compound 94, 6-(4-ethyl-3-oxopiperazin-1-yl)-2-phenyl-N-(2-(5-(tetrahydro-2H-pyran-4-yl)-1,3,4-thiadiazol-2-yl)phenyl)pyrimidine-4-carboxamide], the EC1.5 entry is listed as “A (EC1.5≦1 uM)” and the Emax lay in the range of 150 to 300%.

In the case of `CC(=O)c1ccccc1NC(=O)c1cc(NC2CCNCC2)nc(-c2ccccc2)n1` [Compound 140], the EC1.5 entry is “A (EC1.5≦1 uM)” and the Emax was ≥ 300%.

For `CCN(CCN(C)C)c1cc(C(=O)Nc2ccccc2-c2ncc(C(C)(C)C)s2)nc(-c2ccccc2)n1` [Compound 63], the EC1.5 entry was “A (EC1.5≦1 uM)” and the Emax was 150 to 300%.

For the compound `COCCNc1cc(C(=O)Nc2ccccc2-c2nnc(N3CCN4CCC[C@H]4C3)s2)nc(-c2ccccc2)n1` [Compound 117], the EC1.5 entry was “A (EC1.5≦1 uM)” and the Emax was in the range of 150 to 300%.

On to `Cc1cccc(NC(=O)c2ccccc2NC(=O)c2cc(NCCN(C)C)nc(-c3ccccc3)n2)c1` [Compound 146, 6-(2-(dimethylamino)ethylamino)-2-phenyl-N-(2-(m-tolylcarbamoyl)phenyl)pyrimidine-4-carboxamide], for which the EC1.5 entry is “B (EC1.5>1 and ≦10 uM)”; the Emax was ≥ 300%.

With `CN(C)CCNc1cc(C(=O)Nc2ccccc2-c2nnc(-c3ccccc3)s2)nc(-c2ccccc2)c1` [Compound 33], the EC1.5 entry is on record as “A (EC1.5≦1 uM)” and the Emax was ≥ 300%.

Take `O=C1CN(c2cc(C(=O)Nc3ccccc3-c3nnc(C(=O)N4CCOCC4)s3)nc(-c3ccccc3)n2)CCN1` [Compound 89]: the EC1.5 result is listed as “A (EC1.5≦1 uM)” and the Emax is ≥ 300%.

`CCN(CCN(C)C)c1cc(C(=O)Nc2ccccc2-c2nncs2)nc(-c2ccccc2)n1` [Compound 41]: the EC1.5 entry is reported as “A (EC1.5≦1 uM)” and the Emax was ≥ 300%.

Turning to `CCOC(=O)c1nnc(-c2ccccc2NC(=O)c2cc(N(CC)CCN(C)C)nc(-c3ccccc3)n2)s1` [Compound 59], the EC1.5 entry is on record as “A (EC1.5≦1 uM)” and the Emax is 150 to 300%.

Turning to `O=C(Nc1ccccc1-c1nnc(N2CCOCC2)s1)c1cc(OC[C@H](O)CO)nc(-c2ccccc2)n1` [Compound 109], the EC1.5 entry is “A (EC1.5≦1 uM)” and the Emax is ≥ 300%.

For the compound `CNCCN(C)c1cc(C(=O)Nc2ccccc2-c2nnc(-c3ccccc3)s2)nc(-c2ccccc2)n1` [Compound 32], the EC1.5 result is given as “A (EC1.5≦1 uM)” and the Emax was ≥ 300%.

In the case of `O=C1CN(c2cc(C(=O)Nc3ccccc3-c3nncs3)nc(-c3ccccc3)n2)CCN1` [Compound 95], the EC1.5 result is listed as “A (EC1.5≦1 uM)” and the Emax is ≥ 300%.

For the compound `CN(C)CCNc1cc(C(=O)Nc2ccccc2-c2ccccc2)nc(-c2ccccc2)n1` [Compound 2], the EC1.5 result was “C (EC1.5>10 uM)” and the Emax is < 150%.

In the case of `CN(C)CCNc1cc(C(=O)Nc2ccccc2C(=O)Nc2ccc(Cl)c(Cl)c2)nc(-c2ccccc2)n1` [Compound 153, N-(2-(3,4-dichlorophenylcarbamoyl)phenyl)-6-(2-(dimethylamino)ethylamino)-2-phenylpyrimidine-4-carboxamide], the EC1.5 result is listed as “C (EC1.5>10 uM)” and the Emax was in the range of 150 to 300%.

The values above are taken from patent US20110039847A1, “AMIDE DERIVATIVES AS SIRTUIN MODULATORS” (Sirtris Pharmaceuticals, Inc, priority 2007, published 2011).
